The values below come from patent US9018395B2, “Pyrazolopyridine and pyrazolopyrimidine derivatives as melanocortin-4 receptor modulators” (Université de Montréal, priority 2011, dated 2015).

Non-standard residues stand in square brackets, D forms with d. Nle = CCCC[C@H](N)C(=O)O

Broadly, the IC50 is the concentration needed to halve the response being measured.

T1 sequence (P32245 whole entry): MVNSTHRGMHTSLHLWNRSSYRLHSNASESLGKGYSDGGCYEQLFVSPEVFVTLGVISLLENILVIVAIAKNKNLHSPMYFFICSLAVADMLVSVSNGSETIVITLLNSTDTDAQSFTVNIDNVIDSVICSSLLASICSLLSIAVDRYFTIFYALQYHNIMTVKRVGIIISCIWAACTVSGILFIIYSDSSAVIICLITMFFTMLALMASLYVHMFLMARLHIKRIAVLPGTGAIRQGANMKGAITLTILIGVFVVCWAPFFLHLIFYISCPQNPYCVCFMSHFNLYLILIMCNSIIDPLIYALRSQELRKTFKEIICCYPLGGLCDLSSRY

The first series concerns the target T1, wild-type human melanocortin 4 receptor (WT-hMC4R) (Homo sapiens, UniProt P32245).
T1 construct: expressed in transfected cells; cDNA from UMR cDNA resource center
Nature of the series: Cyclic AMP assay (HTRF), antagonist competition against NDP-α-MSH. The class given is cell-based. To be noted: HEK293T cells expressing double-tagged WT-hMC4R; cAMP accumulation; 1 hour compound then 4 nM NDP-α-MSH 30 min. A digest of the protocol: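 HEK293T cells stably expressing N-terminal 3xHA, C-terminal venus-YFP tagged WT-hMC4R, in D-PBS with 0.75 mM IBMX; compound (0.01 nM-10 μM) 1 h at 37° C, then 4 nM NDP-α-MSH 30 min. cAMP by HTRF competitive immunoassay; IC50 from sigmoidal variable-slope fit.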
In the case of `COc1ccc(Nc2nn3ccc(C(=O)N(CCC(C)C)CCC(C)C)cc3c2CCCN2CCCCC2)cc1` [Example 142, N,N-diisopentyl-2-((4-methoxyphenyl)amino)-3-(3-(piperidin-1-yl)propyl)pyrazolo[1,5-a]pyridine-5-carboxamide], the IC50 was less than 0.5 µM.

`CC(C)CCN(CCC(C)C)C(=S)c1ccn2nc(-c3ccccc3)c(CCCN3CCCCC3)c2c1` [Example 143] had an IC50 of 1 to 5 µM. `CC(C)CCN(CCC(C)C)Cc1ccn2nc(-c3ccccc3)c(CCCN3CCCCC3)c2c1` [Example 144] yielded an IC50 of 5 to 15 µM.

Take `COc1ccc(-c2nn3ccc(C(=O)N(CCC(C)C)CCC(C)C)cc3c2/C=C/CN2CCC(C)CC2)cc1` [Example 145]: the concentration for half-maximal inhibition (IC50) was less than 0.5 µM. On the same count and under the same terms, with `COc1ccc(-c2nn3ccc(C(=O)N(CCC(C)C)CCC(C)C)cc3c2CCCN2CCC(C)CC2)cc1` [Example 146] the figure was 1 to 5 µM. Still for that read-out and setting: the figure for `CCOc1ccc(-c2nn3ccc(C(=O)N(CCC(C)C)CCC(C)C)cc3c2/C=C/CN2CCOCC2)cc1` [Example 147] is 5 to 15 µM. `COc1ccc(-c2nn3ccc(C(=O)N(CCC(C)C)CCC(C)C)cc3c2CCN2CCCCC2)cc1` [Example 149, N,N-diisopentyl-2-(4-methoxyphenyl)-3-(2-(piperidin-1-yl)ethyl)pyrazolo[1,5-a]pyridine-5-carboxamide] gave an IC50 of 5 to 15 µM. `COc1ccc(-c2nn3ccc(C(=O)N(CCC(C)C)CCC(C)C)cc3c2/C=C/CNCc2ccccc2)cc1` [Example 150] came in with an IC50 of 5 to 15 µM.

Regarding `COc1ccccc1-c1nn2ccc(C(=O)N(CCC(C)C)CCC(C)C)cc2c1CCCN1CCCCC1` [Example 151], the 50% inhibitory concentration (IC50) was 1 to 5 µM. Same read-out and setting: with `COc1ccc(Nc2nn3ccc(C(=O)N(CCC(C)C)CCC(C)C)cc3c2C(=O)NCCN2CCCCC2)cc1` [Example 152] the figure was 0.5 to 1 µM; with `CNC/C=C/c1c(-c2ccc(OC)cc2)nn2ccc(C(=O)N(CCC(C)C)CCC(C)C)cc12` [Example 153], 5 to 15 µM. Same read-out and setting: the figure for `COc1ccc(-c2nn3ccc(C(=O)N(CCC(C)C)CCC(C)C)cc3c2CCCN)cc1` [Example 154] is 5 to 15 µM. Same read-out and setting: the figure for `COc1ccc(-c2nn3ccc(C(=O)N(CCC(C)C)CCC(C)C)cc3c2CCCNCc2ccccc2)cc1` [Example 155] is 1 to 5 µM; for `COc1ccc(-c2nn3ccc(C(=O)N(CCC(C)C)CCC(C)C)cc3c2CCCN2CCC2)cc1` [Example 156] it is 1 to 5 µM; for `CNCCCc1c(-c2ccc(OC)cc2)nn2ccc(C(=O)N(CCC(C)C)CCC(C)C)cc12` [Example 157] it is 5 to 15 µM. As for `COc1ccc(-c2nn3ccc(C(=O)N(CCC(C)C)CCC(C)C)cc3c2/C=C/CN2CCCC(F)C2)cc1` (stereo not drawn) [Example 158], the IC50 fell in the range of 1 to 5 µM. For the compound `COc1ccc(-c2nn3ccc(C(=O)N(CCC(C)C)CCC(C)C)cc3c2/C=C/CN2CCCOCC2)cc1` [Example 159], the IC50 was in the range of 0.5 to 1 µM.

For `COc1ccc(-c2nn3ccc(C(=O)N(CCC(C)C)CCC(C)C)cc3c2CCCN2[C@H](C)CCC[C@@H]2C)cc1` [Example 160], the half-maximal inhibitory concentration (IC50) is 1 to 5 µM. On the same count and under the same terms, the figure for `COc1ccc(-c2nn3ccc(C(=O)N(CCC(C)C)CCC(C)C)cc3c2CCCN2CCCC(F)C2)cc1` (stereo not drawn) [Example 161] is 1 to 5 µM. Same read-out and setting: with `COc1ccc(-c2nn3ccc(C(=O)N(CCC(C)C)CCC(C)C)cc3c2CCCN2CCCOCC2)cc1` [Example 162] the figure was 0.5 to 1 µM; with `CCCNCCCc1c(-c2ccc(OC)cc2)nn2ccc(C(=O)N(CCC(C)C)CCC(C)C)cc12` [Example 163], 1 to 5 µM. Same read-out and setting: the figure for `COc1ccc(-c2nn3ccc(C(=O)N(CCC(C)C)CCC(C)C)cc3c2CCCN2CCCCC2)cn1` [Example 164, N,N-diisopentyl-2-(6-methoxypyridin-3-yl)-3-(3-(piperidin-1-yl)propyl)pyrazolo[1,5-a]pyridine-5-carboxamide] is less than 0.5 µM; for `CN=C(c1ccn2nc(-c3ccccc3)c(CCCN3CCCCC3)c2c1)N(CCC(C)C)CCC(C)C` [Example 165, N,N-diisopentyl-N′-methyl-2-phenyl-3-(3-(piperidin-1-yl)propyl)pyrazolo[1,5-a]pyridine-5-carboximidamide] it is less than 0.5 µM. `CCOc1ccc(-c2nn3ccc(C(=O)N(CCC(C)C)CCC(C)C)cc3c2CCCN2CCOCC2)cc1` [Example 166] displayed an IC50 of 1 to 5 µM. On the same count and under the same terms, with `CC(C)CCN(CCC(C)C)C(=O)c1ccn2nc(C(=O)N3CCOCC3)c(/C=C/CN3CCCCC3)c2c1` [Example 167] the figure was 5 to 15 µM.

Turning to `COc1ccc(-c2nn3ccc(C(=O)N(CCC(C)C)CCC(C)C)cc3c2CCCN2CCCCC2C)cc1` (stereo not drawn) [Example 168], the 50% inhibitory concentration (IC50) was in the range of 0.5 to 1 µM. Same read-out and setting: with `COc1ccc(-c2nn3ccc(C(=O)N(CCC(C)C)CCC(C)C)cc3c2/C=C/CN2CCCCC2C)cc1` (stereo not drawn) [Example 169] the figure was 0.5 to 1 µM; with “N,N-Diisopentyl-2-(4-methoxyphenyl)-3-(3-(piperidin-1-yl)propyl)pyrazolo[1,5-a]pyrimidine-5-carboxamide [Example 89]”, 1 to 5 µM.

For a further series, the system named is MC4R/MC3R.
Assay: not given
To be noted: cited from earlier work.
In the case of “Ac-Nle-Gly-Lys-D-Nal(2)-Arg-Trp-Gly-NH(2)”, the “selectivity for MC4R as compared to MC3R” value is 34 fold. As to “Ac-Nle-Gly-Lys-D-Phe-Arg-Trp-Gly-NH(2) (Ac-[Nle]GK[dF]RWG-NH2; SMILES CCCC[C@H](NC(C)=O)C(=O)NCC(=O)N[C@@H](CCCCN)C(=O)N[C@H](Cc1ccccc1)C(=O)N[C@@H](CCCNC(=N)N)C(=O)N[C@@H](Cc1c[nH]c2ccccc12)C(=O)NCC(N)=O)”, the “selectivity for MC4R as compared to MC3R” value was 90 fold.

Another series deals with MC4R/MC5R.
Assay: not given
To be noted: cited from earlier work.
For “Ac-Nle-Gly-Lys-D-Nal(2)-Arg-Trp-Gly-NH(2)”, the “selectivity for MC4R as compared to MC5R” value is given as 109 fold. Take “Ac-Nle-Gly-Lys-D-Phe-Arg-Trp-Gly-NH(2) (Ac-[Nle]GK[dF]RWG-NH2; SMILES CCCC[C@H](NC(C)=O)C(=O)NCC(=O)N[C@@H](CCCCN)C(=O)N[C@H](Cc1ccccc1)C(=O)N[C@@H](CCCNC(=N)N)C(=O)N[C@@H](Cc1c[nH]c2ccccc12)C(=O)NCC(N)=O)”: the “selectivity for MC4R as compared to MC5R” value is on record as 110 fold.

In the next series the test system is MC4R.
Assay: not given
To be noted: cited from earlier work.
Take “Ac-Nle-Gly-Lys-D-Nal(2)-Arg-Trp-Gly-NH(2)”: the activity in vivo entry is “active in vivo”. Turning to “Ac-Nle-Gly-Lys-D-Phe-Arg-Trp-Gly-NH(2) (Ac-[Nle]GK[dF]RWG-NH2; SMILES CCCC[C@H](NC(C)=O)C(=O)NCC(=O)N[C@@H](CCCCN)C(=O)N[C@H](Cc1ccccc1)C(=O)N[C@@H](CCCNC(=N)N)C(=O)N[C@@H](Cc1c[nH]c2ccccc12)C(=O)NCC(N)=O)”, the activity in vivo entry is “active in vivo”.

Tested on in the next series: not given
Assay: not given
To be noted: in vivo; cited from earlier work.
On to “Ac-Nle-Gly-Lys-D-Nal(2)-Arg-Trp-Gly-NH(2)”, for which the blood-brain barrier crossing entry is “crossed the blood-brain barrier”. For the compound “Ac-Nle-Gly-Lys-D-Phe-Arg-Trp-Gly-NH(2) (Ac-[Nle]GK[dF]RWG-NH2; SMILES CCCC[C@H](NC(C)=O)C(=O)NCC(=O)N[C@@H](CCCCN)C(=O)N[C@H](Cc1ccccc1)C(=O)N[C@@H](CCCNC(=N)N)C(=O)N[C@@H](Cc1c[nH]c2ccccc12)C(=O)NCC(N)=O)”, the blood-brain barrier crossing result is “crossed the blood-brain barrier”.
